Like-named read-outs stand apart in the source and are kept apart here.
Key:
MV4;11 cells = experiment: Cell viability assay (CellTiter-Glo) in MV4;11 cells, alone or with gilteritinib; type: cell-based; settings: Homo sapiens, MV4-11, 72 h, MV4;11 cells, three days, CellTiter-Glo, read-out: MV4
MOLM-13 cells = experiment: Cell viability assay (CellTiter-Glo) in MOLM-13 cells, alone or with gilteritinib; type: cell-based; settings: Homo sapiens, MOLM-13, 72 h, MOLM-13 cells, three days, CellTiter-Glo
[1] = compound alone (without gilteritinib), 11 IC50
[2] = compound with gilteritinib 10 nM, 11 IC50 gilteritinib
[3] = compound alone (without gilteritinib), read-out: MOLM-13 IC50
[4] = compound with gilteritinib 20 nM, read-out: MOLM-13 IC50 gilteritinib

Structure (SMILES) | IC50 (MV4;11 cells; [1]) | IC50 (MV4;11 cells; [2]) | IC50 (MOLM-13 cells; [3]) | IC50 (MOLM-13 cells; [4])
Cc1nn([C@H]2C[C@@H](CCCNc3ccc4c(c3)C(=O)N(C3CCC(=O)NC3=O)C4=O)C2)cc1-c1cnc2cc(N3CCOCC3)ccc2n1 (stereo partly drawn) [GS-422, 2-(2,6-dioxopiperidin-3-yl)-5-((3-(cis-3-(3-methyl-4-(6-morpholinoquinoxalin-2-yl)-1H-pyrazol-1-yl)cyclobutyl)propyl)amino)isoindoline-1,3-dione] | 10 to 100 nM | < 10 nM | 10 to 100 nM | < 10 nM
CN1CCN(c2ccnc(-c3cnn([C@H]4C[C@H](CCCNc5ccc6c(c5)C(=O)N(C5CCC(=O)NC5=O)C6=O)C4)c3)n2)CC1 (stereo partly drawn) [GS-423, 2-(2,6-dioxopiperidin-3-yl)-5-((3-(trans-3-(4-(4-(4-methylpiperazin-1-yl)pyrimidin-2-yl)-1H-pyrazol-1-yl)cyclobutyl)propyl)amino)isoindoline-1,3-dione] | 100 to 1000 nM | 10 to 100 nM | 100 to 1000 nM | 10 to 100 nM
CN1CCN(c2ccnc(-c3cnn([C@H]4C[C@H](CNc5ccc6c(c5)C(=O)N(C5CCC(=O)NC5=O)C6=O)C4)c3)n2)CC1 (stereo partly drawn) [GS-424, 2-(2,6-dioxopiperidin-3-yl)-5-(((trans-3-(4-(4-(4-methylpiperazin-1-yl)pyrimidin-2-yl)-1H-pyrazol-1-yl)cyclobutyl)methyl)amino)isoindoline-1,3-dione] | > 1000 nM | > 1000 nM | 100 to 1000 nM | 10 to 100 nM
O=C1CCC(N2C(=O)c3ccc(NCCC[C@H]4C[C@@H](n5cc(-c6cnc7cc(N8CCNCC8)ccc7n6)cn5)C4)cc3C2=O)C(=O)N1 (stereo partly drawn) [GS-425, 2-(2,6-dioxopiperidin-3-yl)-5-((3-(cis-3-(4-(6-(piperazin-1-yl)quinoxalin-2-yl)-1H-pyrazol-1-yl)cyclobutyl)propyl)amino)isoindoline-1,3-dione] | > 1000 nM | 10 to 100 nM | 100 to 1000 nM | 10 to 100 nM
CN1CCC(c2cccc3nc(-c4cnn([C@H]5C[C@H](CCCNc6ccc7c(c6)C(=O)N(C6CCC(=O)NC6=O)C7=O)C5)c4)cnc23)CC1 (stereo partly drawn) [GS-426, 2-(2,6-dioxopiperidin-3-yl)-5-((3-(trans-3-(4-(5-(1-methylpiperidin-4-yl)quinoxalin-2-yl)-1H-pyrazol-1-yl)cyclobutyl)propyl)amino)isoindoline-1,3-dione] | 10 to 100 nM | < 10 nM | 10 to 100 nM | < 10 nM
O=C1CCC(N2C(=O)c3ccc(NCCC[C@H]4C[C@H](n5cc(-c6cnc7c(C8CCOCC8)cccc7n6)cn5)C4)cc3C2=O)C(=O)N1 (stereo partly drawn) [GS-427, 2-(2,6-dioxopiperidin-3-yl)-5-((3-(trans-3-(4-(5-(tetrahydro-2H-pyran-4-yl)quinoxalin-2-yl)-1H-pyrazol-1-yl)cyclobutyl)propyl)amino)isoindoline-1,3-dione] | 10 to 100 nM | < 10 nM | 10 to 100 nM | < 10 nM
Cc1nn([C@H]2C[C@@H](CCCNc3ccc4c(c3)C(=O)N(C3CCC(=O)NC3=O)C4=O)C2)cc1-c1cnc2cc(N3CCN(C)CC3)ccc2n1 (stereo partly drawn) [GS-428, 2-(2,6-dioxopiperidin-3-yl)-5-((3-(cis-3-(3-methyl-4-(6-(4-methylpiperazin-1-yl)quinoxalin-2-yl)-1H-pyrazol-1-yl)cyclobutyl)propyl)amino)isoindoline-1,3-dione] | 10 to 100 nM | < 10 nM | 10 to 100 nM | < 10 nM
O=C1CCC(N2C(=O)c3ccc(NCCC[C@H]4C[C@@H](n5cc(-c6cnc7cc(C8CCNCC8)ccc7n6)cn5)C4)cc3C2=O)C(=O)N1 (stereo partly drawn) [GS-429, 2-(2,6-dioxopiperidin-3-yl)-5-((3-(cis-3-(4-(6-(piperidin-4-yl)quinoxalin-2-yl)-1H-pyrazol-1-yl)cyclobutyl)propyl)amino)isoindoline-1,3-dione] | 100 to 1000 nM | < 10 nM | 100 to 1000 nM | 10 to 100 nM
O=C1CCC(N2C(=O)c3ccc(NCCC[C@H]4C[C@@H](n5cc(-c6cnc7cc(C8CCOCC8)ccc7n6)cn5)C4)cc3C2=O)C(=O)N1 (stereo partly drawn) [GS-430, 2-(2,6-dioxopiperidin-3-yl)-5-((3-(cis-3-(4-(6-(tetrahydro-2H-pyran-4-yl)quinoxalin-2-yl)-1H-pyrazol-1-yl)cyclobutyl)propyl)amino)isoindoline-1,3-dione] | 100 to 1000 nM | 10 to 100 nM | > 1000 nM | 10 to 100 nM
O=C1CCC(N2C(=O)c3ccc(NCCC[C@H]4C[C@H](n5cc(-c6cnc7c(C8CCNCC8)cccc7n6)cn5)C4)cc3C2=O)C(=O)N1 (stereo partly drawn) [GS-431, 2-(2,6-dioxopiperidin-3-yl)-5-((3-(trans-3-(4-(5-(piperidin-4-yl)quinoxalin-2-yl)-1H-pyrazol-1-yl)cyclobutyl)propyl)amino)isoindoline-1,3-dione] | < 10 nM | < 10 nM | 10 to 100 nM | < 10 nM
CN1CCC(c2ccc3nc(-c4cnn([C@H]5C[C@@H](CCCNc6ccc7c(c6)C(=O)N(C6CCC(=O)NC6=O)C7=O)C5)c4)cnc3c2)CC1 (stereo partly drawn) [GS-432, 2-(2,6-dioxopiperidin-3-yl)-5-((3-(cis-3-(4-(6-(1-methylpiperidin-4-yl)quinoxalin-2-yl)-1H-pyrazol-1-yl)cyclobutyl)propyl)amino)isoindoline-1,3-dione] | > 1000 nM | 10 to 100 nM | > 1000 nM | 10 to 100 nM
O=C1CCC(N2C(=O)c3ccc(NCCC[C@H]4C[C@H](n5cc(C6CCOCC6)cn5)C4)cc3C2=O)C(=O)N1 (stereo partly drawn) [GS-433, 2-(2,6-dioxopiperidin-3-yl)-5-((3-(trans-3-(4-(tetrahydro-2H-pyran-4-yl)-1H-pyrazol-1-yl)cyclobutyl)propyl)amino)isoindoline-1,3-dione] | > 1000 nM | > 1000 nM | > 1000 nM | > 1000 nM
Cc1nn([C@H]2C[C@@H](CCCNc3ccc4c(c3)C(=O)N(C3CCC(=O)NC3=O)C4=O)C2)cc1-c1cnc2cc(N3CCNCC3)ccc2n1 (stereo partly drawn) [GS-434, 2-(2,6-dioxopiperidin-3-yl)-5-((3-(cis-3-(3-methyl-4-(6-(piperazin-1-yl)quinoxalin-2-yl)-1H-pyrazol-1-yl)cyclobutyl)propyl)amino)isoindoline-1,3-dione] | < 10 nM | < 10 nM | 10 to 100 nM | < 10 nM
CN1CCC(c2cnn([C@H]3C[C@H](CCCNc4ccc5c(c4)C(=O)N(C4CCC(=O)NC4=O)C5=O)C3)c2)CC1 (stereo partly drawn) [GS-435, 2-(2,6-dioxopiperidin-3-yl)-5-((3-(trans-3-(4-(1-methylpiperidin-4-yl)-1H-pyrazol-1-yl)cyclobutyl)propyl)amino)isoindoline-1,3-dione] | 100 to 1000 nM | > 1000 nM | > 1000 nM | 100 to 1000 nM
CN1CCN(c2nccc(-c3cnn([C@H]4C[C@H](CCCNc5ccc6c(c5)C(=O)N(C5CCC(=O)NC5=O)C6=O)C4)c3)n2)CC1 (stereo partly drawn) [GS-436, 2-(2,6-dioxopiperidin-3-yl)-5-((3-(trans-3-(4-(2-(4-methylpiperazin-1-yl)pyrimidin-4-yl)-1H-pyrazol-1-yl)cyclobutyl)propyl)amino)isoindoline-1,3-dione] | > 1000 nM | 100 to 1000 nM | > 1000 nM | 100 to 1000 nM
O=C1CCC(N2C(=O)c3ccc(NCCCC4CC(n5cc(N6CCOCC6)cn5)C4)cc3C2=O)C(=O)N1 (stereo not drawn) [GS-437, 2-(2,6-dioxopiperidin-3-yl)-5-((3-(3-(4-morpholino-1H-pyrazol-1-yl)cyclobutyl)propyl)amino)isoindoline-1,3-dione] | > 1000 nM | > 1000 nM | > 1000 nM | 100 to 1000 nM
O=C1CCC(N2C(=O)c3ccc(NC[C@H]4C[C@H](n5cc(N6CCOCC6)c(C6CC6)n5)C4)cc3C2=O)C(=O)N1 (stereo partly drawn) [GS-438, 5-(((trans-3-(3-cyclopropyl-4-morpholino-1H-pyrazol-1-yl)cyclobutyl)methyl)amino)-2-(2,6-dioxopiperidin-3-yl)isoindoline-1,3-dione] | > 1000 nM | > 1000 nM | > 1000 nM | 100 to 1000 nM
Cc1cccc(-c2cn([C@H]3C[C@H](CNc4ccc5c(c4)C(=O)N(C4CCC(=O)NC4=O)C5=O)C3)nc2C(F)(F)F)n1 (stereo partly drawn) [GS-439, 2-(2,6-dioxopiperidin-3-yl)-5-(((trans-3-(4-(6-methylpyridin-2-yl)-3-(trifluoromethyl)-1H-pyrazol-1-yl)cyclobutyl)methyl)amino)isoindoline-1,3-dione] | 100 to 1000 nM | 10 to 100 nM | > 1000 nM | 10 to 100 nM
CN1CCN(c2cccc(-c3cn([C@H]4C[C@H](CNc5ccc6c(c5)C(=O)N(C5CCC(=O)NC5=O)C6=O)C4)nc3C3CC3)n2)CC1 (stereo partly drawn) [GS-440, 5-(((trans-3-(3-cyclopropyl-4-(6-(4-methylpiperazin-1-yl)pyridin-2-yl)-1H-pyrazol-1-yl)cyclobutyl)methyl)amino)-2-(2,6-dioxopiperidin-3-yl)isoindoline-1,3-dione] | 100 to 1000 nM | 100 to 1000 nM | 100 to 1000 nM | 100 to 1000 nM
O=C1CCC(N2C(=O)c3ccc(NC[C@H]4C[C@H](n5cc(-c6cccc(NC7CCOCC7)n6)c(C6CC6)n5)C4)cc3C2=O)C(=O)N1 (stereo partly drawn) [GS-441, 5-(((trans-3-(3-cyclopropyl-4-(6-((tetrahydro-2H-pyran-4-yl)amino)pyridin-2-yl)-1H-pyrazol-1-yl)cyclobutyl)methyl)amino)-2-(2,6-dioxopiperidin-3-yl)isoindoline-1,3-dione] | > 1000 nM | 10 to 100 nM | 10 to 100 nM | 100 to 1000 nM
O=C1CCC(N2C(=O)c3ccc(NC[C@H]4C[C@H](n5nc(C6CC6)c6ccccc65)C4)cc3C2=O)C(=O)N1 (stereo partly drawn) [GS-442, 5-(((trans-3-(3-cyclopropyl-1H-indazol-1-yl)cyclobutyl)methyl)amino)-2-(2,6-dioxopiperidin-3-yl)isoindoline-1,3-dione] | < 10 nM | < 10 nM | 10 to 100 nM | < 10 nM

Source: US20240050428A1 (Cullgen (Shanghai), Inc., priority 2020, published 2024)
